What all share (assay): growth of human tumour cells (NCI), 48 h
Test [1] has as its system HT29 colon.
The test system of test [2] is OVCAR-8 ovarian.
Test [3] relates to A549 NSCLC.
Test [4] deals with OVCAR-5 ovarian.
Test [5] deals with T-47D breast.
For test [6], the system named is ACHN renal.
For test [7], the system named is SF-295 CNS.
For test [8], the system named is 786-0 renal.
In test [9] the test system is TK-10 renal.
For test [10], the system named is IGROV1 ovarian.

Molecules are shown by their SMILES.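 1) Cells in 96-well plates. 2) Compound, 48 h, 5 concentrations. 3) Linear interpolation between surrounding doses. 4) Unreached endpoint = highest concentration. At the GI50, growth is halved. TGI: total growth inhibition.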 A value given as a limit tells only on which side of the number the result lay.

`COc1ccccc1N1C(=O)/C(=C\c2ccccc2)SC1c1cc(OC)c(OC)c(OC)c1` (stereo not drawn): the TGI in [1] is more than 100 µM; in test [2], more than 100 µM; in [3], more than 100 µM; in [4], more than 100 µM; in [5], 37.8 µM; in test [6], more than 100 µM. Further, the TGI in test [7], in test [8] and in [9] was more than 100 µM each time.
For the compound `O=[N+]([O-])c1ccc(N/N=C\c2ccc(O)cc2O)nc1`, the GI50 in [1] was 5.32 µM; in [2], 1.52 µM; in [3] it was 2.47 µM; in test [4] it was 5.68 µM; in test [5], 4.04 µM; in test [10] it was 3.4 µM. Also, the GI50 in test [6] is 0.599 µM; in test [7], 2.96 µM; in test [9] it was 5.09 µM. Moreover, the TGI in test [1], in test [2], in test [3], in test [4], in test [5] and in test [10] was more than 100 µM in each case. In addition, the TGI was 21.3 µM in test [6], more than 100 µM in [7] and more than 100 µM in test [9].
On to `O=C(O)Cc1ccc(-n2nnc3c(=O)[nH][nH]c(=O)c32)cc1`, for which the TGI in test [1], in [2], in test [3], in test [4], in test [6] and in [7] was more than 100 µM in each case. For the same compound, the TGI in test [8] and in test [9] was more than 100 µM in each case.
On to `COc1ccc(C(CC(=O)c2ccc(O)cc2)C(C(=O)c2ccc(O)cc2)C(c2ccc(OC)cc2)C2C(=O)NC(=S)NC2=O)cc1` (stereo not drawn), for which the TGI is more than 100 µM in [1]; 60 µM in [2]; 89.9 µM in test [3]; 49.6 µM in [4]; 32.3 µM in test [10]; 43.6 µM in test [6]. In addition, the TGI was found to be 52.3 µM in test [7], 44.2 µM in test [8] and 53.7 µM in test [9].
Regarding `COc1cc2oc(=O)cc(C)c2c(OC)c1OC`, the TGI in [1], in test [2], in [3], in [4], in [10] and in test [6] was more than 100 µM each time. Also, the TGI in [7], in [8] and in test [9] was more than 100 µM in each case.
`O=CC1C(=O)Nc2nc3ccccc3n2C1c1ccccc1` (stereo not drawn): the TGI stood at 41.2 µM in test [1]; 46.1 µM in test [2]; 95.4 µM in test [3]; 95.7 µM in test [4]; 27.3 µM in [10]; 42.7 µM in test [6]. The values for the TGI in test [7], in test [8] and in [9] were 43.8 µM, 24.9 µM and 71.6 µM, respectively.
Consider `COc1ccc(/C=C2\NC(=S)N(CN3CCOCC3)C2=O)cc1`, for which the TGI in test [1], in test [2], in test [3], in test [4], in test [10] and in test [6] was more than 100 µM in each case. Besides, the TGI in test [7], in test [8] and in test [9] was more than 100 µM each time.
In the case of `ClC1(Cl)C2CCOC21n1cnc2ccccc21` (stereo not drawn), the TGI in [1], in [2], in test [3], in test [4], in test [5] and in test [10] was more than 100 µM each time. The TGI in test [7] and in test [8] was more than 100 µM in each case.
`FC(F)(F)c1ccc(N=NN2CCCC2)cc1`: the TGI in [1], in test [3], in test [4], in test [5], in test [10] and in test [6] was more than 100 µM throughout. Further, the TGI in test [7], in test [8] and in test [9] was more than 100 µM throughout.
For `CC(=O)Nc1ccc2cc3c(nc2n1)c1cccnc1n3S(=O)(=O)c1ccccc1`, the TGI in test [1], in test [2], in test [3], in [4], in test [10] and in test [6] was more than 100 µM throughout. Further, the TGI in test [7], in [8] and in [9] was more than 100 µM in each case.
Take `C[C@H](N)C(=O)Nc1ccc(-c2nc3ccccc3s2)cc1Cl`: the TGI was 32.8 µM in test [1]; more than 100 µM in test [2]; 27.6 µM in [3]; 14.9 µM in [4]; more than 100 µM in [10]; 29 µM in test [6]. Moreover, the TGI in [7] came out at 33.9 µM; in test [8], 25.7 µM; in test [9] it was 14.7 µM.
On to `NC(=O)NC(=O)c1cccc(C(=O)NC(N)=O)n1`, for which the TGI in test [1], in [2], in test [3], in [4], in test [5] and in [6] was more than 100 µM in each case. In addition, the TGI in test [7], in test [8] and in test [9] was more than 100 µM each time.
With `Cc1cn(C2CC(/[N+]([O-])=N\Nc3ccc([N+](=O)[O-])cc3)C(CO)O2)c(=O)[nH]c1=O` (stereo not drawn), the TGI in test [1], in test [2], in test [3], in test [4], in [10] and in test [6] was more than 100 µM throughout. Besides, the TGI in test [7], in [8] and in test [9] was more than 100 µM throughout.
With `COc1ccc(-c2nc3ccccc3c(=O)[nH]2)cc1OC`, the TGI in test [1] is more than 100 µM; in [2], 67.5 µM; in [3] it was more than 100 µM; in test [4], more than 100 µM; in [5], more than 100 µM; in [10], 81.5 µM. The TGI in test [7] and in test [8] was more than 100 µM throughout.
Take `C/C(=N\Nc1nc2ccccc2[nH]1)c1ccc2ccccc2n1`: the TGI is more than 100 µM in test [2]; 10.2 µM in test [3]; 10 µM in test [4]; 3.74 µM in test [5]; 8.1 µM in test [10]; 24.2 µM in test [6]. Moreover, the TGI in test [7] worked out at 8.29 µM; in [8], 10.7 µM; in test [9], 13.2 µM.
`COc1cc(/C=C2\CCCC3=C2N=C2SC=NN2C3c2cc(OC)c(OC)c(OC)c2)cc(OC)c1OC` (stereo not drawn): the GI50 in test [1] was 3.07 µM; in [2], 3.23 µM; in test [3], 2.95 µM; in test [5], 3.9 µM; in [6], 1.88 µM; in test [9] it was 4.19 µM. Further, the TGI in [1] is 7.41 µM; in test [2] it was 29.8 µM; in test [3] it was more than 100 µM; in test [5], more than 100 µM; in test [6] it was 3.74 µM; in test [9], 47.6 µM.
In the case of `CCOC(=O)C(C(=O)OCC)C(=S)NC1OC(COC(C)=O)C(OC(C)=O)C(OC(C)=O)C1OC(C)=O` (stereo not drawn), the TGI in test [1], in test [2], in [3], in test [4], in test [5] and in test [10] was more than 100 µM throughout. Further, the TGI in test [7] and in test [8] was more than 100 µM in each case.
Take `C=C1[C@@H]2CCC(C)(C)[C@H]1CCC(=O)[C@@H]2C(=O)OC`: the TGI in [1], in test [2], in test [3], in test [10], in test [6] and in test [7] was more than 100 µM each time. Also, the TGI in test [8] and in test [9] was more than 100 µM each time.
`COc1ccc(/C=C/C(=O)N[C@@H]2C(=O)N3[C@@H]2SC(C)(C)[C@@H]3C(=O)O)cc1OC`: the TGI in test [1], in test [2], in test [3], in test [4], in [5] and in test [6] was more than 100 µM each time. Further, the TGI in test [7], in test [8] and in test [9] was more than 100 µM each time.
As to `CNC(=S)c1nnsc1N`, the TGI in test [2], in test [3], in test [4], in test [5], in [10] and in test [6] was more than 100 µM throughout. Moreover, the TGI in test [7], in test [8] and in test [9] was more than 100 µM each time.
As for `Cc1cccc(C)c1NC(=O)/C(CC(=O)CC(c1ccccc1)c1c(O)c2ccccc2oc1=O)=N/O` (stereo not drawn), the TGI in test [1], in test [2], in [3], in test [4], in [10] and in test [6] was more than 100 µM throughout. Moreover, the TGI in [7], in test [8] and in [9] was more than 100 µM throughout.
For `O=C(CCCN1CCC(Nc2ccc(F)cc2)(c2nnnn2C2CCCCC2)CC1)c1ccc(F)cc1`, the TGI in [1] is more than 100 µM; in test [2], 63.4 µM; in test [3] it was 31.6 µM; in test [4], 29.7 µM; in test [10], 12.3 µM; in test [6], 28.6 µM. The TGI in test [7] was 40.9 µM; in [8], 37.1 µM; in test [9] it was 29.4 µM.
As to `COc1cc(C2C(Cl)C(=O)N2NC(=O)c2ccccc2O)cc(OC)c1OC` (stereo not drawn), the TGI was 9.06 µM in test [1]; more than 10 µM in test [2]; more than 10 µM in test [3]; more than 10 µM in [4]; more than 10 µM in [10]; more than 10 µM in test [6]. Further, the TGI in test [7] was 8.43 µM; in [8], more than 10 µM; in [9], more than 10 µM.
Consider `CSc1c(C#N)c(=O)n(N)c2n[nH]c(C)c12`, for which the TGI in [1], in test [2], in test [3], in test [5], in [8] and in test [9] was more than 100 µM throughout.
Turning to `O=C1CSC2(CC(/C=C/c3ccccc3[N+](=O)[O-])=NN2c2cccc(S(=O)(=O)O)c2)N1c1nc2ccccc2s1` (stereo not drawn), the TGI in test [1] came out at 69.1 µM; in test [2] it was 28.6 µM; in [3], 52.9 µM; in test [4], 39.9 µM; in test [5], 30.6 µM; in test [10], 36.1 µM. The results for the TGI in test [6], in [8] and in test [9] were 44.2 µM, 22.5 µM and 29.4 µM, respectively.
Take `CSc1nnc2n1-c1ccccc1SCC2`: the TGI in test [1], in [2], in test [3], in test [10], in [6] and in test [7] was more than 100 µM each time. Also, the TGI in [8] and in test [9] was more than 100 µM in each case.
Consider `O=CN/C=C\c1cc(O)ccc1O`, for which the TGI in test [1] is more than 31.6 µM; in [2] it was 32.1 µM; in [3] it was more than 100 µM; in test [4], more than 100 µM; in test [10] it was more than 58.4 µM; in test [6], 28.2 µM. The TGI in [7] is more than 100 µM; in [8] it was 31.1 µM; in test [9], more than 64.7 µM.
In the case of `O=C(CN1CCOCC1)c1ccc2c(c1)oc(=O)n2CCN1CCCCC1`, the TGI in test [1], in test [2], in test [4], in [10], in test [6] and in [7] was more than 100 µM each time. Further, the TGI in [8] and in [9] was more than 100 µM each time.
As for `C=C(C)[C@H]1C=C[C@@H](OC(C)=O)[C@@]2(COC(C)=O)[C@H](OC(=O)CCC)[C@H]3[C@@H](OC(C)=O)[C@@H](C)C[C@]3(O)C(=O)[C@@](C)(OC(C)=O)[C@H]12`, the TGI is more than 100 µM in test [1]; more than 100 µM in test [2]; more than 100 µM in test [3]; more than 100 µM in [4]; 89.7 µM in test [5]; more than 100 µM in [10]. Also, the TGI in [6], in [8] and in test [9] was more than 100 µM in each case.

For the origin of these results see PubChem BioAssay (NCI).
